Reference: patent US20140072654A1, “CANCER WITH METABOLIC THERAPY AND HYPERBARIC OXYGEN” (priority 2011, published 2014)

Assays:
[1] = in vivo; cited from earlier work
[2] = rat; cited from earlier work
VM-M3 cells = type: cell-based, mouse; conditions: 5 mM βHB, 24, 48, 72 and 96 hrs
Protocol: Cell proliferation rate was measured using the MTT Cell Proliferation Assay (ATCC). Cells were plated onto a 96 well plate and grown to desired density. […] In proliferating cells, MTT is reduced to purple formazan which absorbs light at 490-520 nm and whose excitation can be measured using standard fluorescent microscopy and spectrophotometry. Rapidly dividing cells reduce MTT at very high rates, indicating their rate of proliferation. Cell proliferation can also be measured with Ki67 immunohistochemistry staining, cell viability can also be evaluated with the LDH Cytotoxicity Assay (Cayman Chemical).
Cell viability was measured using the LIVE/DEAD Viability/Cytotoxicity Kit for Mammalian Cells (Invitrogen). Cells were grown to desired density on a coverslip and washed with Dulbecco's phosphate-buffered saline (D-PBS). […] The two-color fluorescence assay contains two probes which specifically label live or dead cells. […] Calcein produces an intense green fluorescence with an excitation/emission of 495/515 nm. Ethidium homodimer-1 (Ethd-1) enters cells with damaged membranes and binds to nucleic acid. Ethd-1 bound to DNA produces a red fluorescence in dead cells with an excitation/emission of 495/635 nm. Live and dead cells were identified and quantified using standard fluorescent microscopy. […]

[3] = system: primary cultured cortex neurons; assay: Superoxide anion production (DHE fluorescence) in neurons treated with HBO or amyloid beta; type: cell-based, rat; conditions: 60 min, 5 ATA O2; 2 mM ketones
Protocol: Effect of ketones on superoxide production in neurons treated with Aβ1-42 and HBO and cell viability of U87MG cells was examined Primary dissociated neuronal cultures of the hippocampus and cortex were acquired from Brain Bits LLC, to increase time efficiency and to minimize cost associated with purchasing rats. Hippocampal or cortical tissue from Brain Bits (shipped in Hibernate®) were enzymatically and mechanically dissociated via pipette trituration. Neurons were plated on 12 mm glass coverslips and allowed to adhere for 1-2 hrs in an incubator maintained at 9-20% O2 in a humidified atmosphere. Cultures were maintained in media purchased from Brain Bits, including NbActiv1® and NbActive4. […]
Presence of intracellular ROS is measured by detection of superoxide anion using Dihydroethidium (DHE). […] Cells were washed in PBS and then visualized using fluorescent microscopy or quantified using spectrophotometry. […]
Acquisition and statistical analyses of fluorescence imaging was performed as previously reported (D'Agostino, 2007; Filosa, 2002; Ritucci, 1996; Ritucci, 1997; Ritucci, 1998; Crowe, 1995; Weinlich, 1998; Inglefield, 1998; Inglefield, 1999). Average fluorescence intensity (FI) for each cell is calculated as the percent change in fluorescence from baseline, […], where FIb is the basal fluorescence defined by the two images preceding the experimental recordings. […]

For MCT oil, the “levels of ketones produced by supplementation” value [1] is listed as under 500 µM.
For `CC(C)=O` [Acetone], the LD50 [2] is listed as over 5000 mg/kg.
For `CC(O)CC(=O)O` (stereo not drawn) [βHB, β-hydroxybutyrate], the “proliferation” value (VM-M3 cells) was “significantly decreased”.
For `Cc1ccccc1NC(=N)Nc1ccccc1C` [DTG, 1,3,-di-o-tolylguanidine], the “effect on superoxide anion production under hyperoxia” value [3] was “prevented the hyperoxia-induced increase in superoxide production”.
